Like-named read-outs stand apart in the source and are kept apart here.
How the values were obtained:
Hs578T spheroids = experiment: Spheroid cytotoxicity assay (luciferase), Hs578T; format: cell-based, human; conditions: for IC50: read-out: IC50 Hs578T spheroids; for resistance of Hs578T spheroids versus MDA-MB-231 spheroids: difference of spheroid IC50 values
Method: (§1) To determine cytotoxicity in the 3D tumor models, spheroid cytotoxicity assays were performed as previously described. […] For generation of single tumor spheroids, tumor cells resuspended in culture medium were seeded into 96-well plates, which were coated before with 0.7% agarose (SeaKem® GTG™ Agarose, Lonza, Basel, Switzerland). After the formation of spheroids (48 h), they were treated with serial dilutions of compounds. Measurements of luciferase activity were performed on day 7, after supplementation with D-luciferin (Perkin Elmer, Rodgau, Germany), on a Tecan Spark microplate reader (Tecan, Männedorf, Switzerland). Generation of dose-response curves and calculation of IC50 values including standard deviations were accomplished using GraphPad Prism8.
(§2) Since the tumor cells stably express luciferase, analysis of spheroid growth and response to therapy is accomplished by measurement of bioluminescent signal intensity.

MDA-MB-231 spheroids = experiment: Spheroid cytotoxicity assay (luciferase), MDA-MB-231; format: cell-based, human; conditions: read-out: IC50 MDA-MB-231 spheroids
Method: as §1, §2

A375 cells = experiment: Cell cycle analysis, A375; format: cell-based, human; conditions: double the IC50 concentration
Method: (§3) Cell cycle analyses were performed as previously described.
(§4) Changes in the genetic material and the resulting mutations, which can affect the formation of tumors, usually occur during the proliferation process in the cell. A human cell passes through all four phases of this cell cycle within 20 h, with the set of its chromosomes varying between single and double. During apoptosis, fragmentation of DNA occurs along with an associated decrease in chromosome content. Fixation of cells with ethanol leads to permeabilization of the cell membrane and thus to loss of smaller DNA fragments, so that apoptotic cells contain less than the single set of chromosomes detected by a SubG1 peak. Given the different amounts of DNA in the cells and the proportional binding of propidium iodide to the DNA, the different fluorescence intensities can be used to infer the distribution of cells in the respective phases of the cell cycle.
In addition, after 48 h of treatment, there was a decrease in the S and M phases for all treatments, which is similar to that noted after 24 h. […] As in the 24 and 48 h tests, there was a decrease in M- and S-phase cells and an increase in G1/G0 phase cells after 72 h compared with the untreated control. Several independent experiments by different groups show similar results with MCF-7 [42, 43, 44]. Due to a lack of DNA fragmentation in MCF-7 cells, the human melanoma cell line A375 was used as a second cell line for comparison (Figure 4d). […] The effect of compound 3 is even more pronounced with an incubation time of 48 or 72 h. An increase in the SubG1 peak was observed from 0.7% in the control to up to 60% after 72 h of treatment.

A375 melanoma cells = experiment: SRB cytotoxicity assay, A375; format: cell-based; conditions: Homo sapiens, read-out: IC50 A375
Method: (§5) All of the compounds were dissolved in dimethyl sulfoxide (DMSO) to achieve a 20 mM stock solution. Cells were seeded in cell culture flasks 24 h before treatment. The treatment was performed for 24 h.
(§6) The cytotoxicity of the drugs was determined in 2D tumor models using sulforhodamine B (SRB) assays. Treatment started 24 h after seeding the tumor cells in 96-well plates as previously described.

[1] = system: A2780 ovarian cancer cells; experiment: SRB cytotoxicity assay, A2780; format: cell-based; conditions: Homo sapiens, read-out: IC50 A2780
Method: as §5, §6

[2] = system: tumor cell lines (2D and 3D tumor models); experiment: Cytotoxicity summarised across tumor models; format: cell-based
Method: as §6
To determine cytotoxicity in the 3D tumor models, spheroid cytotoxicity assays were performed as previously described. The luciferase-expressing, breast cancer cell lines MDA-MB-231 and Hs578T and derived spheroids were cultivated in RPMI medium (Sigma-Aldrich, Taufkirchen, Germany) containing 10% fetal bovine serum (BioWest, Nuaillé, France) and […] penicillin/streptomycin (Sigma-Aldrich) at 37 °C/5% CO2 in a humid atmosphere. For generation of single tumor spheroids, tumor cells resuspended in culture medium were seeded into 96-well plates, which were coated before with 0.7% agarose (SeaKem® GTG™ Agarose, Lonza, Basel, Switzerland). After the formation of spheroids (48 h), they were treated with serial dilutions of compounds. Measurements of luciferase activity were performed on day 7, after supplementation with D-luciferin (Perkin Elmer, Rodgau, Germany), on a Tecan Spark microplate reader (Tecan, Männedorf, Switzerland). Generation of dose-response curves and calculation of IC50 values including standard deviations were accomplished using GraphPad Prism8.

[3] = target: recombinant human carbonic anhydrase IX (Homo sapiens, UniProt Q16790); experiment: hCA IX esterase assay with p-nitrophenyl acetate; conditions: for Ki relative to the unconjugated inhibitors: higher Ki than unconjugated inhibitors
Method: In this measurement, the enzymatically catalyzed hydrolysis of p-nitrophenyl acetate to p-nitrophenol was investigated. […] This was followed by measurement of the v-S-characteristics with inhibitor. […] For each run, 2 experimental series (biological replicate) were prepared simultaneously and measured for 10 min at a measurement interval of 8 s, also as a two-fold determination (technical replicate). […] The resulting reaction velocities, calculated from a calibration curve with p-nitrophenole under the same conditions, were plotted against the substrate concentration. The kinetic evaluation for competitive inhibition was then performed with the program GraphPad Prism.

[4] = system: MCF-7 breast cancer cells; experiment: SRB cytotoxicity assay, MCF-7; format: cell-based; conditions: Homo sapiens, read-out: IC50 MCF-7
Method: as §5, §6

MCF-7 cells [5] = experiment: Annexin V / propidium iodide assay, MCF-7; format: cell-based, human; conditions: double the IC50 concentration
Method: The Annexin V assays were performed as previously described.
Compounds 3, 5, and 9 were used to study cell death mechanisms and cell cycle analysis. A feature that can be used as it is only characteristic of apoptotic but not necrotic cells is Annexin V staining. During apoptosis, in addition to cell shrinkage, chromatin condensation, and the formation of apoptotic bodies, phosphatidylserine, which is originally inside the membrane, is translocated to the outside. There is a rapid change in phospholipid symmetry in the cell membrane, a process occurring so rapidly that the barrier function of the cell membrane is initially still present. The cellular protein Annexin V can bind to the displaced phosphatidylserine in the presence of calcium. To test for the presence of the cell membrane barrier, the non-membrane-permeable dye propidium iodide was added, which intercalates into the DNA. The flow cytometric data were divided into four areas (live cells, early and late apoptotic cells, and necrotic cells). Untreated cells were used as controls. The results are depicted in Figure 3. […] Even after 48 h, no significant difference between compound 3 and 5 was detected (55–60% live cells, 8% early apoptotic cells, 28–36% late apoptotic cells, 0.5–3% necrotic cells). […] Since both compounds are sulfonamides of betulin, the similar results are not surprising.

MCF-7 cells [6] = experiment: Cell cycle analysis, MCF-7; format: cell-based, human; conditions: double the IC50 concentration
Method: as §3, §4
The MCF-7 breast cancer cell line was used in the experiments. An untreated sample was also included in the cell cycle analysis as a control. The results are depicted in Figure 4.

[7] = 7 days of treatment, 3 independent experiments
[8] = A-375, SRB assay, 96 h incubation, mean ± SD
[9] = A2780, SRB assay, 96 h incubation, mean ± SD
[10] = Homo sapiens; SRB assays, A375, MCF-7, A2780; read-out: IC50 values (range over cell lines of Table 1)
[11] = Homo sapiens; read-out: cytotoxicity range in 2D and 3D tumor models
[12] = MCF7, SRB assay, 96 h incubation, mean ± SD
[13] = Homo sapiens, MDA-MB-231, 168 h
[14] = Homo sapiens, Hs-578T, 168 h, 7 days of treatment, 3 independent experiments
[15] = Homo sapiens, MDA-MB-231, 168 h, 7 days of treatment, 3 independent experiments

## NS(=O)(=O)c1ccc(NC(=O)Nc2ccc(F)cc2)cc1 [Compound U-104, reference compound]
Hs578T spheroids; [7]
  IC50: 83.9 ± 12.4 µM
MDA-MB-231 spheroids; [7]
  IC50: 33.5 ± 7.6 µM

## C=C(C)C1CCC2(C(=O)NCCS(N)(=O)=O)CCC3(C)C(CCC4C5(C)CCC(OC(C)=O)C(C)(C)C5CCC43C)C12 (stereo not drawn) [Compound 3, (3β)-28-{[2-(Aminosulfonyl)-ethyl]-amino}28-oxolup-20(29)-en-3-yl Acetate]
A375 cells; A375, 24 h
  cells in G1/G0 phase: 46.9%
  cells in M phase: 15.8%
  cells in S phase: 21.2%
  cells in SubG1 phase: 11.9%
A375 cells; A375, 72 h, control 0.7%
  SubG1 peak: up to 60%
A375 melanoma cells; [8]
  IC50: 6.4 ± 0.7 µM
[1]; [9]
  IC50: 10.4 ± 0.8 µM
[2]; [10]
  IC50: 6.4 to 11.4 µM
[2]; [11]
  IC50: 6.4 to 30.1 µM
[3]
  Ki: 1.04 ± 0.39 µM
  Ki relative to the unconjugated inhibitors: approximately 10 fold
[4]; [12]
  IC50: 7.5 ± 0.7 µM
MCF-7 cells [5]; MCF-7, 24 h
  late apoptotic cells: 16%
MCF-7 cells [5]; MCF-7, 48 h
  early apoptotic cells: 8%
MCF-7 cells [5]; MCF-7, 72 h
  early apoptotic cells: 9%
  late apoptotic cells: 53%
  live cells: 34%
  necrotic cells: 4.5%
MCF-7 cells [6]; MCF-7, 72 h
  cells in SubG1 phase: 8.1%

## NS(=O)(=O)c1nnc(NC(=O)CCC(=O)O)s1 [Compound 7, 4 {[5-(Amino sulfonyl)-1,3,4-thiadiazol-2-yl]-amino}-4-oxobutanoic Acid]
A375 melanoma cells; A-375, 96 h
  IC50: > 100 µM
[1]; A2780, 96 h
  IC50: > 100 µM
Hs578T spheroids; Homo sapiens, Hs-578T, 168 h
  IC50: > 100 µM
MDA-MB-231 spheroids; [13]
  IC50: > 100 µM
[4]; MCF7, 96 h
  IC50: > 100 µM

## C=C(C)C1CCC2(COC(=O)CCC(=O)O)CCC3(C)C(CCC4C5(C)CCC(OC(C)=O)C(C)(C)C5CCC43C)C12 (stereo not drawn) [Compound 4, 4-{[(3beta)-3-(Acetyloxy)-lup-20(29)-en-28-yl]-oxy}-4-oxobutanoic Acid]
A375 melanoma cells; [8]
  IC50: 12.1 ± 1.5 µM
[1]; [9]
  IC50: 12.3 ± 3.9 µM
other
  melting point: 122 to 125 °C
[4]; [12]
  IC50: 9.8 ± 0.6 µM

## C=C(C)C1CCC2(COC(=O)CCC(=O)Nc3nnc(S(N)(=O)=O)s3)CCC3(C)C(CCC4C5(C)CCC(OC(C)=O)C(C)(C)C5CCC43C)C12 (stereo not drawn) [Compound 9, (3β)-3-(Acetyloxy)-lup-20(29)-en-28-yl-4-{[5-(aminosulfonyl)-1,3,4-thiadiazol-2-yl]-amino}-4-oxobutanoate]
A375 melanoma cells; A-375, 96 h
  IC50: 7.2 ± 0.6 µM
[1]; A2780, 96 h
  IC50: 8.7 ± 2 µM
Hs578T spheroids; Homo sapiens, Hs-578T, 168 h
  IC50: 28.4 ± 0.3 µM
Hs578T spheroids
  resistance of Hs578T spheroids versus MDA-MB-231 spheroids: only about three-fold differences
[2]; Homo sapiens, read-out: cytotoxicity range in 2D and 3D tumor models
  IC50: 6.4 to 30.1 µM
MDA-MB-231 spheroids; [13]
  IC50: 8.1 ± 1.4 µM
[3]
  Ki: 1.25 ± 0.25 µM
  Ki relative to the unconjugated inhibitors: approximately 10 fold
[4]; MCF7, 96 h
  IC50: 6.2 ± 0.2 µM
MCF-7 cells [5]; MCF-7, 24 h
  effect on cell survival compared to untreated control: no difference
MCF-7 cells [5]; MCF-7, 72 h
  effect on cell viability (Annexin V): comparatively smaller decrease in cell viability
MCF-7 cells [6]; MCF-7, 72 h
  cells in SubG1 phase: 6.5%

## C=C(C)C1CCC2(COC(=O)CCC(=O)NCCS(N)(=O)=O)CCC3(C)C(CCC4C5(C)CCC(OC(C)=O)C(C)(C)C5CCC43C)C12 (stereo not drawn) [Compound 5, (3β)-3-(Acetyloxy)-lup-20(29)-en-28-yl 4-{[2-(aminosulfonyl)-ethyl]amino}-4-oxobutanoate]
A375 melanoma cells; [8]
  IC50: 9.4 ± 0.5 µM
[1]; [9]
  IC50: 11.4 ± 1.4 µM
Hs578T spheroids; [14]
  IC50: 30.1 ± 0.7 µM
Hs578T spheroids
  resistance of Hs578T spheroids versus MDA-MB-231 spheroids: only about three-fold differences
[2]; [10]
  IC50: 6.4 to 11.4 µM
[2]; [11]
  IC50: 6.4 to 30.1 µM
MDA-MB-231 spheroids; [15]
  IC50: 10.3 ± 2.7 µM
[3]
  Ki: 1.1 ± 0.31 µM
  Ki relative to the unconjugated inhibitors: approximately 10 fold
[4]; [12]
  IC50: 8.6 ± 0.7 µM
MCF-7 cells [5]; MCF-7, 24 h
  late apoptotic cells: 16%
MCF-7 cells [5]; MCF-7, 48 h
  early apoptotic cells: 8%
MCF-7 cells [5]; MCF-7, 72 h
  effect on cell viability (Annexin V): comparably strong effect
MCF-7 cells [6]; MCF-7, 48 h
  cells in G1/G0 phase: 83.9%
  cells in M phase: 5.8%
  cells in S phase: 1.8%
  cells in SubG1 phase: 8.1%
MCF-7 cells [6]; MCF-7, 72 h
  cells in SubG1 phase: 12.1%

## Nc1nnc(S(N)(=O)=O)s1 [Compound 6, 5-Amino-1,3.4-thiadiazole-2-sulfonamide]
A375 melanoma cells; [8]
  IC50: > 100 µM
[1]; [9]
  IC50: > 100 µM
[4]; [12]
  IC50: > 100 µM

## NS(=O)(=O)c1nnc(NC(=O)CCC(=O)NCCOCCO)s1 [Compound 8, N-[5-(Aminosulfonyl)-1,3,4-thiadiazol-2-yl]-N’-[2-(2-hydroxyethoxy)-ethyl]-succinamide]
A375 melanoma cells; [8]
  IC50: > 100 µM
[1]; [9]
  IC50: > 100 µM
Hs578T spheroids; [14]
  IC50: > 100 µM
MDA-MB-231 spheroids; [15]
  IC50: > 100 µM
[3]
  Ki: 0.146 µM
[4]; [12]
  IC50: > 100 µM

— publication PMC10974084, “Combination of Betulinic Acid Fragments and Carbonic Anhydrase Inhibitors—A New Drug Targeting Approach” (Pharmaceutics, 2024)
